Biological target: T1, full length human recombinant glucocorticoid receptor (Homo sapiens, UniProt P04150)
T1 construct: It contains some partially purified full length human recombinant glucocorticoid receptor; purchased Panvera/Invitrogen PV4302
T1 sequence (P04150 1-777): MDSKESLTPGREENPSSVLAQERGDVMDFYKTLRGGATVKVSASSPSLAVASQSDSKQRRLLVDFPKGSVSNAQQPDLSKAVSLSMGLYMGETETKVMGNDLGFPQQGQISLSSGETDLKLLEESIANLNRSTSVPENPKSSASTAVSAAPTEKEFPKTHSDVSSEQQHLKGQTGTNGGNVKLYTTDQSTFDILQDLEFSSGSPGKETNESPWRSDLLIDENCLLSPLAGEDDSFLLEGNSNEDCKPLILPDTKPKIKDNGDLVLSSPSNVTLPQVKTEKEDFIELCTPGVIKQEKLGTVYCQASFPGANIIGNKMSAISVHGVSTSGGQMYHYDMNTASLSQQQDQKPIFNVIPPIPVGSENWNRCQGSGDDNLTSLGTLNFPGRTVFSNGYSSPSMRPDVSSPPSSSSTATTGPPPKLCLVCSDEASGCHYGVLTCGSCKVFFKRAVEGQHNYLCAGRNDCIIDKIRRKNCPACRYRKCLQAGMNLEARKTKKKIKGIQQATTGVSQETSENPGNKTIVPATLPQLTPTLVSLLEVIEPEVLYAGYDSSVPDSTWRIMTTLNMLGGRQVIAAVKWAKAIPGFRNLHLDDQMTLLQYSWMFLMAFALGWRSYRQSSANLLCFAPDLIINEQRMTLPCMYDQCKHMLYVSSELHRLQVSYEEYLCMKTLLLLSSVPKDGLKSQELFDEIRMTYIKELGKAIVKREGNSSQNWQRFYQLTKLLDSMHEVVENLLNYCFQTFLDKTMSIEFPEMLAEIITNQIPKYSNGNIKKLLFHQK
Assay: Glucocorticoid Receptor Binding Assay (Glucocorticoid Receptor Competitor Assay far red kit, fluorescence polarization)
Conditions: competition with fluorescent GR ligand Fluormone GS Far Red, 3 hours at 22° C., pH 7.4; Ki calculated from IC50 by Cheng-Prusoff
Summary of the method: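 Fluorescence polarization competition with partially purified full-length human recombinant GR, stabilizing peptide and Fluormone GS Far Red tracer in screening buffer pH 7.4; 3 hours at 22° C in the dark, read at 610–660 nm. IC50 from sigmoidal fit; Ki by Cheng-Prusoff.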

## C[C@H](c1ccc(-c2ccc(C(=O)O)c(F)c2)cc1Cl)[C@@](O)(c1cnc2c(c1)N(C)C(=O)CO2)C(F)(F)F (stereo in doubt) [Example 52, 3′-Chloro-3-fluoro-4′-[3,3,3-trifluoro-2-hydroxy-1-methyl-2-(1-methyl-2-oxo-2,3-dihydro-1H-pyrido[2,3-b][1,4]oxazin-7-yl)-propyl]-biphenyl-4-carboxylic acid]
  Ki: 122 nM

## C[C@H](c1ccc(-c2ccc(C(=O)O)c(F)c2)cc1Cl)[C@@](O)(c1cccc2c1OCC(=O)N2C)C(F)(F)F (stereo in doubt) [Example 54, 3′-Chloro-3-fluoro-4′-[3,3,3-trifluoro-2-hydroxy-1-methyl-2-(4-methyl-3-oxo-3,4-dihydro-2H-benzo[1,4]oxazin-8-yl)-propyl]-biphenyl-4-carboxylic acid]
  Ki: 281 nM

## C=CCN1C(=O)COc2ccc([C@](O)([C@H](C)c3ccc(-c4ccc(C(=O)OC)c(F)c4)cc3Cl)C(F)(F)F)cc21 (stereo in doubt) [Example 70, 4′-[2-(4-Allyl-3-oxo-3,4-dihydro-2H-benzo[1,4]oxazin-6-yl)-3,3,3-trifluoro-2-hydroxy-1-methyl-propyl]-3′-chloro-3-fluoro-biphenyl-4-carboxylic acid methyl ester]
  Ki: 278 nM

## C[C@H](c1ccc(-c2ccc(F)c(C(=O)O)c2)cc1Cl)[C@@](O)(c1ccc2c(c1)n(C)c(=O)n2C)C(F)(F)F (stereo in doubt) [Example 74, 3′-Chloro-4′-[2-(1,3-dimethyl-2-oxo-2,3-dihydro-1H-benzoimidazol-5-yl)-3,3,3-trifluoro-2-hydroxy-1-methyl-propyl]-4-fluoro-biphenyl-3-carboxylic acid]
  Ki: 1.7 nM

## C[C@H](c1ccc(-c2ccc(C(=O)O)c(Cl)c2)cc1Cl)[C@@](O)(c1ccc2c(c1)n(C)c(=O)n2C)C(F)(F)F (stereo in doubt) [Example 76, 3,3′-Dichloro-4′-[2-(1,3-dimethyl-2-oxo-2,3-dihydro-1H-benzoimidazol-5-yl)-3,3,3-trifluoro-2-hydroxy-1-methyl-propyl]-biphenyl-4-carboxylic acid]
  Ki: 1 nM

## C[C@H](c1ccc(-c2ccc(C(=O)O)cc2)cc1Cl)[C@@](O)(c1ccc2c(c1)n(C)c(=O)n2C)C(F)(F)F (stereo in doubt) [Example 77, 3′-Chloro-4′-[2-(1,3-dimethyl-2-oxo-2,3-dihydro-1H-benzoimidazol-5-yl)-3,3,3-trifluoro-2-hydroxy-1-methyl-propyl]-biphenyl-4-carboxylic acid]
  Ki: 2.4 nM

## C[C@H](c1ccc(-c2cccc(C(=O)O)c2)cc1Cl)[C@@](O)(c1ccc2c(c1)n(C)c(=O)n2C)C(F)(F)F (stereo in doubt) [Example 78, 3′-Chloro-4′-[2-(1,3-dimethyl-2-oxo-2,3-dihydro-1H-benzoimidazol-5-yl)-3,3,3-trifluoro-2-hydroxy-1-methyl-propyl]-biphenyl-3-carboxylic acid]
  Ki: 1.3 nM

## C[C@H](c1ccc(-c2ccc(Cl)c(C(=O)O)c2)cc1Cl)[C@@](O)(c1ccc2c(c1)n(C)c(=O)n2C)C(F)(F)F (stereo in doubt) [Example 79, 4,3′-Dichloro-4′-[2-(1,3-dimethyl-2-oxo-2,3-dihydro-1H-benzoimidazol-5-yl)-3,3,3-trifluoro-2-hydroxy-1-methyl-propyl]-biphenyl-3-carboxylic acid]
  Ki: 1 nM

## COc1cc(-c2ccc([C@@H](C)[C@@](O)(c3ccc4c(c3)n(C)c(=O)n4C)C(F)(F)F)c(Cl)c2)ccc1C(=O)O (stereo in doubt) [Example 80, 3′-Chloro-4′-[2-(1,3-dimethyl-2-oxo-2,3-dihydro-1H-benzoimidazol-5-yl)-3,3,3-trifluoro-2-hydroxy-1-methyl-propyl]-3-methoxy-biphenyl-4-carboxylic acid]
  Ki: 13.6 nM

## C[C@H](c1ccc(-c2ccc(C(=O)O)cc2Cl)cc1Cl)[C@@](O)(c1ccc2c(c1)n(C)c(=O)n2C)C(F)(F)F (stereo in doubt) [Example 81, 2,3′-Dichloro-4′-[2-(1,3-dimethyl-2-oxo-2,3-dihydro-1H-benzoimidazol-5-yl)-3,3,3-trifluoro-2-hydroxy-1-methyl-propyl]-biphenyl-4-carboxylic acid]
  Ki: 1.4 nM

## C[C@H](c1ccc(-c2ccc(CC(=O)O)cc2)cc1Cl)[C@@](O)(c1ccc2c(c1)n(C)c(=O)n2C)C(F)(F)F (stereo in doubt) [Example 82, {3′-Chloro-4′-[2-(1,3-dimethyl-2-oxo-2,3-dihydro-1H-benzoimidazol-5-yl)-3,3,3-trifluoro-2-hydroxy-1-methyl-propyl]-biphenyl-4-yl}-acetic acid]
  Ki: 7 nM

## C[C@H](c1ccc(-c2cccc(CC(=O)O)c2)cc1Cl)[C@@](O)(c1ccc2c(c1)n(C)c(=O)n2C)C(F)(F)F (stereo in doubt) [Example 83, {3′-Chloro-4′-[2-(1,3-dimethyl-2-oxo-2,3-dihydro-1H-benzoimidazol-5-yl)-3,3,3-trifluoro-2-hydroxy-1-methyl-propyl]-biphenyl-3-yl}-acetic acid]
  Ki: 2.2 nM

## C[C@@H](c1ccc(Oc2ccc(C(=O)O)c(F)c2)cc1Cl)[C@](O)(c1ccc2c(c1)n(C)c(=O)n2C)C(F)(F)F (stereo in doubt) [Example 88, 4-{3-Chloro-4-[2-(1,3-dimethyl-2-oxo-2,3-dihydro-1H-benzoimidazol-5-yl)-3,3,3-trifluoro-2-hydroxy-1-methyl-propyl]-phenoxy}-2-fluoro-benzoic acid]
  Ki: 0.7 nM

## C[C@@H](c1ccc(Oc2ccc(CC(=O)O)cc2)cc1Cl)[C@](O)(c1ccc2c(c1)n(C)c(=O)n2C)C(F)(F)F (stereo in doubt) [Example 89, (4-{3-Chloro-4-[2-(1,3-dimethyl-2-oxo-2,3-dihydro-1H-benzoimidazol-5-yl)-3,3,3-trifluoro-2-hydroxy-1-methyl-propyl]-phenoxy}-phenyl)-acetic acid]
  Ki: 1.1 nM

## C[C@@H](c1ccc(Oc2ccc(C(=O)O)c(Cl)c2)cc1Cl)[C@](O)(c1ccc2c(c1)n(C)c(=O)n2C)C(F)(F)F (stereo in doubt) [Example 90, 2-Chloro-4-{3-chloro-4-[2-(1,3-dimethyl-2-oxo-2,3-dihydro-1H-benzoimidazol-5-yl)-3,3,3-trifluoro-2-hydroxy-1-methyl-propyl]-phenoxy}-benzoic acid]
  Ki: 0.4 nM

## C[C@H](c1ccc(Oc2ccc(C(=O)O)c(Cl)n2)cc1Cl)[C@@](O)(c1ccc2c(c1)n(C)c(=O)n2C)C(F)(F)F (stereo in doubt) [Example 92, 2-Chloro-6-{3-chloro-4-[2-(1,3-dimethyl-2-oxo-2,3-dihydro-1H-benzoimidazol-5-yl)-3,3,3-trifluoro-2-hydroxy-1-methyl-propyl]-phenoxy}-nicotinic acid]
  Ki: 0.6 nM

## C[C@H](c1ccc(Oc2ccc(OCC(=O)O)cc2)cc1Cl)[C@@](O)(c1ccc2c(c1)n(C)c(=O)n2C)C(F)(F)F (stereo in doubt) [Example 93, (4-{3-Chloro-4-[2-(1,3-dimethyl-2-oxo-2,3-dihydro-1H-benzoimidazol-5-yl)-3,3,3-trifluoro-2-hydroxy-1-methyl-propyl]-phenoxy}-phenoxy)-acetic acid]
  Ki: 0.3 nM

## C[C@H](c1ccc(Oc2cccc(OCC(=O)O)c2)cc1Cl)[C@@](O)(c1ccc2c(c1)n(C)c(=O)n2C)C(F)(F)F (stereo in doubt) [Example 94, (3-{3-Chloro-4-[2-(1,3-dimethyl-2-oxo-2,3-dihydro-1H-benzoimidazol-5-yl)-3,3,3-trifluoro-2-hydroxy-1-methyl-propyl]-phenoxy}-phenoxy)-acetic acid]
  Ki: 0.3 nM

## C[C@H](c1ccc(Oc2ccc(C(=O)O)nc2)cc1Cl)[C@@](O)(c1ccc2c(c1)n(C)c(=O)n2C)C(F)(F)F (stereo in doubt) [Example 95, 5-{3-Chloro-4-[2-(1,3-dimethyl-2-oxo-2,3-dihydro-1H-benzoimidazol-5-yl)-3,3,3-trifluoro-2-hydroxy-1-methyl-propyl]-phenoxy}-pyridine-2-carboxylic acid]
  Ki: 5.3 nM

## C[C@H](c1ccc(Oc2ccc(Cl)cc2C(=O)O)cc1Cl)[C@@](O)(c1ccc2c(c1)n(C)c(=O)n2C)C(F)(F)F (stereo in doubt) [Example 100, 5-Chloro-2-{3-chloro-4-[2-(1,3-dimethyl-2-oxo-2,3-dihydro-1H-benzoimidazol-5-yl)-3,3,3-trifluoro-2-hydroxy-1-methyl-propyl]-phenoxy}-benzoic acid]
  Ki: 1.9 nM

## C[C@@H](c1ccc(Oc2ccc(C(=O)O)cn2)cc1Cl)[C@](O)(c1ccc2c(c1)n(C)c(=O)n2C)C(F)(F)F (stereo in doubt) [Example 101, 6-{3-Chloro-4-[2-(1,3-dimethyl-2-oxo-2,3-dihydro-1H-benzoimidazol-5-yl)-3,3,3-trifluoro-2-hydroxy-1-methyl-propyl]-phenoxy}-nicotinic acid]
  Ki: 1.1 nM

— US8450313B2, “2,3-diaryl- or heteroaryl-substituted 1,1,1-trifluoro-2-hydroxypropyl compounds” (Hoffmann-La Roche Inc., priority 2009, dated 2013)
